Marks after values point to notes of the source that are not given here.
Legend:
[1] = system: AKT phosphorylation (pAKT-S473) in HepG2 cells; experiment: AKT phosphorylation by western blot in HepG2 cells; type: cell-based, human; settings: 0.1 mg/ml peptide, 10 minutes, 37°C, 3 independent experiments
Method: (§1) Following treatment, cells were then lysed with RIPA lysis buffer and thereafter centrifuged at 12000 × g for 30 minutes. Thereafter, the extracted cell lysate proteins were quantified using the bicinchoninic acid (BCA) protein assay. To examine the phosphorylation status of IR and AKT, 30-40 μg of proteins were loaded on 10% SDS-PAGE gel followed by western blot using the following antibodies: the mouse monoclonal anti-phospho-IR (pIR-Tyr1334)(1:1000 dilution) and the mouse monoclonal anti-phospho-AKT (pAKT-S473)(1:2000 dilution) as previously described. The corresponding total proteins loaded were also analyzed in parallel using the specific antibodies against the native forms of the different proteins. Densitometry analysis of the different western blots was performed using Image Studio Version 5.2 software from LICOR (Lincoln, Nebraska, USA).

[2] = system: HepG2 cells; experiment: Glucose uptake assay (Glucose Uptake-Glo) in HepG2 cells; type: cell-based, human; settings: 1 hour, 37°C
Method: Glucose uptake in HepG2 cells was carried out using Glucose Uptake-Glo Assay (Promega). For this, cells seeded in a 96-well white plate (50,000 cells/well) were first washed with PBS and starved in phenol red-, glucose-, and serum-free medium (Dulbecco’s modified Eagle’s medium containing 0.01 mM HEPES, 0.3 mg/ml glutamine, 100 IU/ml penicillin, and 100 µg/ml streptomycin). […] The treatment was removed, and the cells were washed once with PBS and then incubated with 50 μL/well of freshly prepared 2-deoxyglucose (500 μM) for 10 minutes at room temperature. The uptake process was stopped and neutralized, followed by the addition of 50 μl/well of 2-deoxyglucose-6-phosphate (2DG6P) detection reagent and incubation for 15-60 minutes at room temperature. The glucose-6-phosphate dehydrogenase (G6PDH) oxidizes 2DG6P to 6-phosphodeoxygluconate (6PDG) and reduces NADP + to NADPH. The reductase uses NADPH to convert the proluciferin to luciferin, which is then used by Ultra-Glo™ recombinant luciferase to produce luminescence. This luminescence, proportional to the amount of 2-deoxyglucose transported inside the cells upon treatment, was then measured using a 0.3–1 second integration on GloMax® Discover luminometer according to Glucose Uptake-Glo™ protocol.

[3] = system: insulin receptor (IR); insulin-induced IR-Rluc/IRS1-YFP BRET in HEK293 cells; experiment: BRET assay of IR activation, peptides combined with insulin; type: cell-based, human
Method: (§2) HepG2 and HEK293 cells were maintained at 37°C, 5% CO2 in complete RPMI and Dulbecco’s modified Eagle’s medium (DMEM), respectively, containing 0.3 mg/ml glutamine, 100 IU/ml penicillin, and 100 µg/ml streptomycin) supplemented with 10% fetal calf serum (Gibco, Carlsbad, CA, USA). The transient transfection in HEK293 cells was carried out in 75 cm flask containing 10^7 cells using Lipofectamine 2000 and 5 µg of IR-Rluc and 5 µg of IRS1-YFP (for BRET and phosphorylation experiments) as previously described. All assays were performed 48 hours post-transfection.
(§3) BRET technology was used for IR activation and its interaction with IRS1 as previously described. […] Following treatments, 10 μl of Coelenterazine h was added to a final concentration of 5 µ M and BRET measurements were carried out using the Tristar 2 multi-label plate reader (Berthold, Germany), allowing luminescence recording and signal integration at 480 nm and 540 nm.
For BRET, the data were normalized by taking as 100% of the maximal insulin-induced BRET signal in the vehicle and analyzed using GraphPad Prism software (San Diego, CA, USA). Statistical analyses were performed statistical significance between the different treatments and conditions as indicated in the figures and tables and their captions. […] The significance is indicated in the figures by stars (****p-value < 0.0001, ***p-value < 0.001, ** p-value < 0.01, * p-value < 0.05), and the absence of stars means non-significant (p-value > 0.05). However, the two-way ANOVA was used for multiple comparisons to determine the statistical significance between the different peptides when compared to each other in the different assays as described in the tables. In this case, the different letters indicate statistically significant effects (p-value < 0.05), while the same letters indicate no significant difference between the different treatments compared to each other.

[4] = system: IR phosphorylation (pIR-Tyr1334) in HepG2 cells; experiment: IR phosphorylation by western blot in HepG2 cells; type: cell-based, human; settings: 0.1 mg/ml peptide, 10 minutes, 37°C, 3 independent experiments
Method: as §1

[5] = target: T1, insulin receptor (IR); interaction of IR-Rluc with IRS1-YFP in HEK293 cells (Homo sapiens, UniProt P06213); experiment: BRET assay of IR activation (IR-Rluc/IRS1-YFP), single treatment, dose-response; type: cell-based; settings: for BRET, % of the maximal response of insulin, Average: HEK293, 1 hour, minimal data set for Figure 1, average
T1 construct: expressed in transfected cells; host or cells: HEK293 cells, transient co-transfection; plasmids provided by Dr. Tarik Issad (Cochin Institute, Paris)
T1 sequence (P06213 28-758 limits assumed): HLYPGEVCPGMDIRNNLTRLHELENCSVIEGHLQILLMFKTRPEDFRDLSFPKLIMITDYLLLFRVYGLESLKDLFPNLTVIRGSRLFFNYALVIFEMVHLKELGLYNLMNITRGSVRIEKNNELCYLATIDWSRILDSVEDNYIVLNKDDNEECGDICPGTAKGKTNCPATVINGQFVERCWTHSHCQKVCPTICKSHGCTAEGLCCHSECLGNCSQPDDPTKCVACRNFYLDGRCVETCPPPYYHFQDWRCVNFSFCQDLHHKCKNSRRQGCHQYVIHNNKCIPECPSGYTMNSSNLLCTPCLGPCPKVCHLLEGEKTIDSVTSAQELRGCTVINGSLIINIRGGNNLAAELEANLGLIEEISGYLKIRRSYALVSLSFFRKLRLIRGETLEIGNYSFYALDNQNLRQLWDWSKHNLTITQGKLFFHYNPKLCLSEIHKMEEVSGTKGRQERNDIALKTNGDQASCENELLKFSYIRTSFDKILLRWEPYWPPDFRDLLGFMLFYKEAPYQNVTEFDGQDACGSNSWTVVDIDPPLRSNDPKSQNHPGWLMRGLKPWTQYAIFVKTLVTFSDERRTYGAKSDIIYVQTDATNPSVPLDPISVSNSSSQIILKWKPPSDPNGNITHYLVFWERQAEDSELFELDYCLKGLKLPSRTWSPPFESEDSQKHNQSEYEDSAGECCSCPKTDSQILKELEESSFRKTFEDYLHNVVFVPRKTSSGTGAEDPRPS
T1 sequence (P06213 763-1382 limits assumed): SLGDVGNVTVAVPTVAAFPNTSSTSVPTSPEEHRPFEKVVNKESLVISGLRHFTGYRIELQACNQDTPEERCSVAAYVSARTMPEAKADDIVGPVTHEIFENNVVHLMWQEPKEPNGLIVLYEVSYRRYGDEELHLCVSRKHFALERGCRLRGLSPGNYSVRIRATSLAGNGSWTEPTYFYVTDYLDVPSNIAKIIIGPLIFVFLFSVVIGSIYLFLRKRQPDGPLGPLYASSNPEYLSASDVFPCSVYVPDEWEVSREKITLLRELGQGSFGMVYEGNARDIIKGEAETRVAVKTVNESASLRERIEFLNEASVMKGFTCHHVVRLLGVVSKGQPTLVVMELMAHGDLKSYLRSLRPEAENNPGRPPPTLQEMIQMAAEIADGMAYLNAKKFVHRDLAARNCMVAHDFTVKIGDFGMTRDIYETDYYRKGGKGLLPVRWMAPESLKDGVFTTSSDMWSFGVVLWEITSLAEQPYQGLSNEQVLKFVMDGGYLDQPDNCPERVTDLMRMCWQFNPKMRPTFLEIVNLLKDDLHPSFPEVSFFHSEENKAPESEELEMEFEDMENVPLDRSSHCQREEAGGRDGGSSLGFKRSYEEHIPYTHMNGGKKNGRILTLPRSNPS
Method: as §2, §3
Statistical analyses were performed statistical significance between the different treatments and conditions as indicated in the figures and tables and their captions. […] The significance is indicated in the figures by stars (****p-value < 0.0001, ***p-value < 0.001, ** p-value < 0.01, * p-value < 0.05), and the absence of stars means non-significant (p-value > 0.05). However, the two-way ANOVA was used for multiple comparisons to determine the statistical significance between the different peptides when compared to each other in the different assays as described in the tables.

## MPVQA [Peptide P4]
[1]
  AKT phosphorylation, single treatment (in words): led to IR and AKT phosphorylation
[2]; Average of Experiments 1-5, HepG2, 0.1 mg/ml peptide or 1 μM insulin, minimal data set for Figure 5
  glucose uptake, specific luminescence signal, Average: 1978100
[2]; HepG2 cells, 0.1 mg/ml peptide or 1 μM insulin, % of insulin's response taken as 100%, mean ± SD of five independent experiments in triplicate
  % of glucose uptake: 78 ± 18^b %
[3]; Average of Experiments 1-7, 1 μM insulin + 0.1 mg/ml peptide, HEK293, minimal data set for Figure 2
  insulin-induced BRET, % of insulin's response in the vehicle, Average: 113.5
[3]; Experiment 1, 1 μM insulin + 0.1 mg/ml peptide, HEK293, minimal data set for Figure 2
  insulin-induced BRET, % of insulin's response in the vehicle: 76.2
[3]; Experiment 2, 1 μM insulin + 0.1 mg/ml peptide, HEK293, minimal data set for Figure 2
  insulin-induced BRET, % of insulin's response in the vehicle: 79.6
[3]; Experiment 3, 1 μM insulin + 0.1 mg/ml peptide, HEK293, minimal data set for Figure 2
  insulin-induced BRET, % of insulin's response in the vehicle: 121.9
[3]; Experiment 4, 1 μM insulin + 0.1 mg/ml peptide, HEK293, minimal data set for Figure 2
  insulin-induced BRET, % of insulin's response in the vehicle: 113.1
[3]; Experiment 5, 1 μM insulin + 0.1 mg/ml peptide, HEK293, minimal data set for Figure 2
  insulin-induced BRET, % of insulin's response in the vehicle: 93.8
[3]; Experiment 6, 1 μM insulin + 0.1 mg/ml peptide, HEK293, minimal data set for Figure 2
  insulin-induced BRET, % of insulin's response in the vehicle: 168.9
[3]; Experiment 7, 1 μM insulin + 0.1 mg/ml peptide, HEK293, minimal data set for Figure 2
  insulin-induced BRET, % of insulin's response in the vehicle: 141.2
[3]; HEK293 cells, 1 μM insulin + 0.1 mg/ml peptide, 1 hour, 37°C, % of insulin's response in the vehicle taken as 100%, mean ± SD of five to seven independent experiments in triplicate
  % of maximal BRET (insulin-induced): 114 ± 13^a %
[3]; HEK293 cells, 0.1 mg/ml peptide + 1 μM insulin, compared to insulin alone (Vehicle)
  profile on insulin-dependent BRET response in combined treatment (in words): non-efficient
[4]
  IR phosphorylation, single treatment (in words): led to IR and AKT phosphorylation
[5]; HEK293 cells co-expressing IR-Rluc and IRS1-YFP, single treatment 60 min, 37°C, maximal BRET increase of dose-response, % of insulin's response taken as 100%, mean ± SD of four independent experiments in triplicate
  % of maximal BRET: 13 ± 1^c %
[5]; HEK293 cells, peptides applied alone
  BRET increase in single treatment (in words): did not promote any significant BRET increase
[5]; peptide 0.001 mg/ml, 37°C
  BRET, % of the maximal response of insulin, Average: 10.7
[5]; peptide 0.005 mg/ml, 37°C
  BRET, % of the maximal response of insulin, Average: 9.6
[5]; peptide 0.01 mg/ml, 37°C
  BRET, % of the maximal response of insulin, Average: 15.8
[5]; peptide 0.05 mg/ml, 37°C
  BRET, % of the maximal response of insulin, Average: 14.2
[5]; peptide 0.1 mg/ml, 37°C
  BRET, % of the maximal response of insulin, Average: 10.1
[5]; peptide 0.5 mg/ml, 37°C
  BRET, % of the maximal response of insulin, Average: 15.2
[5]; peptide 1 mg/ml, 37°C
  BRET, % of the maximal response of insulin, Average: 10.9

From article PMC11952234, “Functional profiling of synthetic camel milk-derived peptides with implication in glucose transport and diabetes” (PLOS One, 2025)
